Experimental findings from the supplement of paper PMC5752671 are described below.

What all share (test): IC50 (cell viability) (log10 M)
Holding throughout (conditions): 4 days

One assay deals with NB4. A digest of the protocol: (§1)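 Listed values are the IC50, taken from fitted curves. Each is the log10 M concentration at which a four-parameter curve crosses 50% viability; where that point is not reached, the highest concentration tested is given. Fourteen leukemia cell lines on extracellular-matrix-coated 384-well plates were exposed in duplicate to eight drug concentrations within 10^–12–10^–4 M, and viability was read with CellTiter-Glo after 4 days.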

Another assay deals with KG1. A digest of the protocol: as §1
The next assay has as its system SKM1. Summed up:
as §1

The next assay has as its system MOLM/16. Summed up: as §1
The next assay relates to OCI-AML3. Summed up: as §1
A further assay has as its system OCI-AML2. A digest of the protocol:
as §1

The next assay has as its system KASUMI1. A digest of the protocol: as §1
A further assay has as its system MOLM/13. A digest of the protocol: as §1
The test system of another assay is PL-21. A digest of the protocol: as §1
The next assay concerns THP-1. A digest of the protocol: as §1

Where a name gives a salt, the structure may show the parent alone.

On to `CC[C@@]1(O)C(=O)OCc2c1cc1n(c2=O)Cc2cc3c(CN(C)C)c(O)ccc3nc2-1` [Topotecan HCl], for which the “IC50 (log10 M)” value with NB4 was less than -8.34; in the assay on KG1, less than -8.34; in the assay with SKM1, less than -8.34; with MOLM/16 it was less than -8.34; in the assay on OCI-AML3, -8.34; with OCI-AML2, less than -8.34. The “IC50 (log10 M)” value with KASUMI1 was -8.14; in the assay on MOLM/13 it was less than -8.34; with PL-21, -8.04; in the assay with THP-1 it was -7.97.
As for `OC[C@H]1O[C@@H](n2cnc3c2N=CNC[C@H]3O)C[C@@H]1O` [Pentostatin], the “IC50 (log10 M)” value in the assay on NB4, in the assay on KG1, with SKM1, with MOLM/16, in the assay on OCI-AML3 and with OCI-AML2 was greater than -5 throughout. For the same molecule, the “IC50 (log10 M)” value with KASUMI1, in the assay with MOLM/13, in the assay with PL-21 and in the assay with THP-1 was greater than -5 throughout.
